{"source": "PubChem BioAssay (NCI)", "assay_in_all_cases": "growth of human tumour cells (NCI), 48 h", "key": {"786-0 renal": {"tested_on": "786-0 renal"}, "A549 NSCLC": {"tested_on": "A549 NSCLC"}, "ACHN renal": {"tested_on": "ACHN renal"}, "BT-549 breast": {"tested_on": "BT-549 breast"}, "CAKI-1 renal": {"tested_on": "CAKI-1 renal"}, "CCRF-CEM leukemia": {"tested_on": "CCRF-CEM leukemia"}, "COLO 205 colon": {"tested_on": "COLO 205 colon"}, "DU-145 prostate": {"tested_on": "DU-145 prostate"}, "EKVX NSCLC": {"tested_on": "EKVX NSCLC"}, "HCC-2998 colon": {"tested_on": "HCC-2998 colon"}, "HCT-116 colon": {"tested_on": "HCT-116 colon"}, "HCT-15 colon": {"tested_on": "HCT-15 colon"}, "HL-60(TB) leukemia": {"tested_on": "HL-60(TB) leukemia"}, "HOP-92 NSCLC": {"tested_on": "HOP-92 NSCLC"}, "HS 578T breast": {"tested_on": "HS 578T breast"}, "HT29 colon": {"tested_on": "HT29 colon"}, "K-562 leukemia": {"tested_on": "K-562 leukemia"}, "KM12 colon": {"tested_on": "KM12 colon"}, "LOX IMVI melanoma": {"tested_on": "LOX IMVI melanoma"}, "M14 melanoma": {"tested_on": "M14 melanoma"}, "MALME-3M melanoma": {"tested_on": "MALME-3M melanoma"}, "MCF7 breast": {"tested_on": "MCF7 breast"}, "MDA-MB-231 breast": {"tested_on": "MDA-MB-231 breast"}, "MDA-MB-435": {"tested_on": "MDA-MB-435"}, "MDA-N": {"tested_on": "MDA-N"}, "MOLT-4 leukemia": {"tested_on": "MOLT-4 leukemia"}, "NCI-H226 lung": {"tested_on": "NCI-H226 lung"}, "NCI-H23 lung": {"tested_on": "NCI-H23 lung"}, "NCI-H460 lung": {"tested_on": "NCI-H460 lung"}, "NCI-H522 lung": {"tested_on": "NCI-H522 lung"}, "NCI/ADR-RES ovarian": {"tested_on": "NCI/ADR-RES ovarian"}, "OVCAR-3 ovarian": {"tested_on": "OVCAR-3 ovarian"}, "OVCAR-4 ovarian": {"tested_on": "OVCAR-4 ovarian"}, "OVCAR-5 ovarian": {"tested_on": "OVCAR-5 ovarian"}, "OVCAR-8 ovarian": {"tested_on": "OVCAR-8 ovarian"}, "PC-3 prostate": {"tested_on": "PC-3 prostate"}, "RXF 393 renal": {"tested_on": "RXF 393 renal"}, "SF-268 CNS": {"tested_on": "SF-268 CNS"}, "SF-295 CNS": {"tested_on": "SF-295 CNS"}, "SF-539 CNS": {"tested_on": "SF-539 CNS"}, "SK-MEL-2 melanoma": {"tested_on": "SK-MEL-2 melanoma"}, "SK-MEL-28 melanoma": {"tested_on": "SK-MEL-28 melanoma"}, "SK-MEL-5 melanoma": {"tested_on": "SK-MEL-5 melanoma"}, "SK-OV-3 ovarian": {"tested_on": "SK-OV-3 ovarian"}, "SN12C renal": {"tested_on": "SN12C renal"}, "SNB-19 CNS": {"tested_on": "SNB-19 CNS"}, "SNB-75 CNS": {"tested_on": "SNB-75 CNS"}, "SR leukemia": {"tested_on": "SR leukemia"}, "SW-620 colon": {"tested_on": "SW-620 colon"}, "T-47D breast": {"tested_on": "T-47D breast"}, "TK-10 renal": {"tested_on": "TK-10 renal"}, "U251 CNS": {"tested_on": "U251 CNS"}, "UACC-257 melanoma": {"tested_on": "UACC-257 melanoma"}, "UACC-62 melanoma": {"tested_on": "UACC-62 melanoma"}, "UO-31 renal": {"tested_on": "UO-31 renal"}}, "note": "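Interpolation was linear, between the two tested concentrations surrounding the appropriate level; five concentrations were tested over 48 hours in 96-well plates. The concentration for full growth arrest is given as TGI.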"}
{"smiles": "COC(=O)[C@]1(C)CCC[C@]2(C)[C@@H](CCC(=O)C(C)C)[C@]3(C=O)O[C@@H]3C[C@H]21", "values": [{"measurement": "TGI", "setting": "786-0 renal", "value": "> 100", "unit": "µM"}, {"measurement": "TGI", "setting": "A549 NSCLC", "value": "> 100", "unit": "µM"}, {"measurement": "TGI", "setting": "ACHN renal", "value": 57.3, "unit": "µM"}, {"measurement": "TGI", "setting": "BT-549 breast", "value": 77.3, "unit": "µM"}, {"measurement": "TGI", "setting": "CAKI-1 renal", "value": 31.9, "unit": "µM"}, {"measurement": "TGI", "setting": "CCRF-CEM leukemia", "value": "> 100", "unit": "µM"}, {"measurement": "TGI", "setting": "COLO 205 colon", "value": "> 100", "unit": "µM"}, {"measurement": "TGI", "setting": "DU-145 prostate", "value": "> 100", "unit": "µM"}, {"measurement": "TGI", "setting": "EKVX NSCLC", "value": "> 100", "unit": "µM"}, {"measurement": "TGI", "setting": "HCC-2998 colon", "value": "> 100", "unit": "µM"}, {"measurement": "TGI", "setting": "HCT-116 colon", "value": 57.7, "unit": "µM"}, {"measurement": "TGI", "setting": "HCT-15 colon", "value": "> 100", "unit": "µM"}, {"measurement": "TGI", "setting": "HL-60(TB) leukemia", "value": "> 100", "unit": "µM"}, {"measurement": "TGI", "setting": "HOP-92 NSCLC", "value": "> 100", "unit": "µM"}, {"measurement": "TGI", "setting": "HS 578T breast", "value": "> 100", "unit": "µM"}, {"measurement": "TGI", "setting": "HT29 colon", "value": "> 100", "unit": "µM"}, {"measurement": "TGI", "setting": "K-562 leukemia", "value": "> 100", "unit": "µM"}, {"measurement": "TGI", "setting": "KM12 colon", "value": "> 100", "unit": "µM"}, {"measurement": "TGI", "setting": "LOX IMVI melanoma", "value": 92.3, "unit": "µM"}, {"measurement": "TGI", "setting": "M14 melanoma", "value": "> 100", "unit": "µM"}, {"measurement": "TGI", "setting": "MALME-3M melanoma", "value": "> 100", "unit": "µM"}, {"measurement": "TGI", "setting": "MCF7 breast", "value": "> 100", "unit": "µM"}, {"measurement": "TGI", "setting": "MDA-MB-231 breast", "value": "> 100", "unit": "µM"}, {"measurement": "TGI", "setting": "MDA-MB-435", "value": 99.6, "unit": "µM"}, {"measurement": "TGI", "setting": "MDA-N", "value": 75.1, "unit": "µM"}, {"measurement": "TGI", "setting": "MOLT-4 leukemia", "value": "> 100", "unit": "µM"}, {"measurement": "TGI", "setting": "NCI-H226 lung", "value": "> 100", "unit": "µM"}, {"measurement": "TGI", "setting": "NCI-H23 lung", "value": "> 100", "unit": "µM"}, {"measurement": "TGI", "setting": "NCI-H460 lung", "value": "> 100", "unit": "µM"}, {"measurement": "TGI", "setting": "NCI-H522 lung", "value": 46.6, "unit": "µM"}, {"measurement": "TGI", "setting": "NCI/ADR-RES ovarian", "value": 90.4, "unit": "µM"}, {"measurement": "TGI", "setting": "OVCAR-3 ovarian", "value": "> 100", "unit": "µM"}, {"measurement": "TGI", "setting": "OVCAR-4 ovarian", "value": 87.3, "unit": "µM"}, {"measurement": "TGI", "setting": "OVCAR-5 ovarian", "value": "> 100", "unit": "µM"}, {"measurement": "TGI", "setting": "OVCAR-8 ovarian", "value": "> 100", "unit": "µM"}, {"measurement": "TGI", "setting": "PC-3 prostate", "value": "> 100", "unit": "µM"}, {"measurement": "TGI", "setting": "RXF 393 renal", "value": 51.7, "unit": "µM"}, {"measurement": "TGI", "setting": "SF-268 CNS", "value": "> 100", "unit": "µM"}, {"measurement": "TGI", "setting": "SF-295 CNS", "value": "> 100", "unit": "µM"}, {"measurement": "TGI", "setting": "SF-539 CNS", "value": "> 100", "unit": "µM"}, {"measurement": "TGI", "setting": "SK-MEL-2 melanoma", "value": "> 100", "unit": "µM"}, {"measurement": "TGI", "setting": "SK-MEL-28 melanoma", "value": "> 100", "unit": "µM"}, {"measurement": "TGI", "setting": "SK-MEL-5 melanoma", "value": "> 100", "unit": "µM"}, {"measurement": "TGI", "setting": "SK-OV-3 ovarian", "value": "> 100", "unit": "µM"}, {"measurement": "TGI", "setting": "SN12C renal", "value": "> 100", "unit": "µM"}, {"measurement": "TGI", "setting": "SNB-19 CNS", "value": "> 100", "unit": "µM"}, {"measurement": "TGI", "setting": "SNB-75 CNS", "value": 63.9, "unit": "µM"}, {"measurement": "TGI", "setting": "SR leukemia", "value": "> 100", "unit": "µM"}, {"measurement": "TGI", "setting": "SW-620 colon", "value": "> 100", "unit": "µM"}, {"measurement": "TGI", "setting": "T-47D breast", "value": 95.7, "unit": "µM"}, {"measurement": "TGI", "setting": "TK-10 renal", "value": "> 100", "unit": "µM"}, {"measurement": "TGI", "setting": "U251 CNS", "value": "> 100", "unit": "µM"}, {"measurement": "TGI", "setting": "UACC-257 melanoma", "value": "> 100", "unit": "µM"}, {"measurement": "TGI", "setting": "UACC-62 melanoma", "value": "> 100", "unit": "µM"}, {"measurement": "TGI", "setting": "UO-31 renal", "value": 48.4, "unit": "µM"}]}
